The values below come from ChEMBL document CHEMBL5303762, “Data for DCP probe BI-8668” (2023).

Data set [1] has as its target Prostaglandin G/H synthase 2 (Homo sapiens) (UniProt P35354). The data set is described as follows: COX-2 Eurofins SafetyScreen44 (BI). The conditions noted are these: Compound concentration 10.0 uM.
In data set [2] the target is MAO-A (amine oxidase [flavin-containing] A) (Homo sapiens, UniProt P21397). In words: (§1) MAO-A_ANTAG Eurofins SafetyScreen44 (BI). More on the design: scale not given: the % may be the effect or the level left. To be noted: compound concentration 10 uM, read-out: % Ctrl.
Sequence of MAO-A (amine oxidase [flavin-containing] A) (Homo sapiens, UniProt P21397) (P21397 whole entry): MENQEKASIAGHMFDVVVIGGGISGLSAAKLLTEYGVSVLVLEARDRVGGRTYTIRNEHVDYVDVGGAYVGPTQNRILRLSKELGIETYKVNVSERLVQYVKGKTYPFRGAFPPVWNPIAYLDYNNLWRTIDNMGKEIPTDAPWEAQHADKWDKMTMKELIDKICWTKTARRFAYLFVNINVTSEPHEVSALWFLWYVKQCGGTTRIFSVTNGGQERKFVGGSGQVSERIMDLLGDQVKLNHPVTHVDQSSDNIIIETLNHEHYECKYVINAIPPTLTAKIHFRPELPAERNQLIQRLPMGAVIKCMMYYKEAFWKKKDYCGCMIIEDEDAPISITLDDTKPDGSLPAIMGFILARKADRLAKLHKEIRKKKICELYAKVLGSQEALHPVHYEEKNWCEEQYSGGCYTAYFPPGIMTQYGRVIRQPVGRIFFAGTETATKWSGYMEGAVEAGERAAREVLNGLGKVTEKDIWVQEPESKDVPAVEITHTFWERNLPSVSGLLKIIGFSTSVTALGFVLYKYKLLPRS
In data set [3] the target is Beta-1 adrenergic receptor (Homo sapiens) (UniProt P08588). The conditions noted are these: Compound concentration 10.0 uM.
Sequence of Beta-1 adrenergic receptor (Homo sapiens) (P08588 whole entry, looked up): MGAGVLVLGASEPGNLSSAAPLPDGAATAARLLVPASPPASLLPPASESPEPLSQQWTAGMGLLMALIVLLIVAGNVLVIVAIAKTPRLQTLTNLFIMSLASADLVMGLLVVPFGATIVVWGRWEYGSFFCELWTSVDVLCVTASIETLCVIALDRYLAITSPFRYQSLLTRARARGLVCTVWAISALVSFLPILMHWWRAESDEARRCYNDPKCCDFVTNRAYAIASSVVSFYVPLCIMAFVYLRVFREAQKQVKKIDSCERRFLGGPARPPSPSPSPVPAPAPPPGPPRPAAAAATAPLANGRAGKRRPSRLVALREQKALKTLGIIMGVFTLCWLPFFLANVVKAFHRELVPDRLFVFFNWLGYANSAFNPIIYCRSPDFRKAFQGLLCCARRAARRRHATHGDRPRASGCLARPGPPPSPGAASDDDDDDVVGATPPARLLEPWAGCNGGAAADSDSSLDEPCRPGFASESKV
The target of data set [4] is Kappa-type opioid receptor (Homo sapiens) (UniProt P41145). The conditions noted are these: Compound concentration 10.0 uM.
Sequence of Kappa-type opioid receptor (Homo sapiens) (P41145 whole entry): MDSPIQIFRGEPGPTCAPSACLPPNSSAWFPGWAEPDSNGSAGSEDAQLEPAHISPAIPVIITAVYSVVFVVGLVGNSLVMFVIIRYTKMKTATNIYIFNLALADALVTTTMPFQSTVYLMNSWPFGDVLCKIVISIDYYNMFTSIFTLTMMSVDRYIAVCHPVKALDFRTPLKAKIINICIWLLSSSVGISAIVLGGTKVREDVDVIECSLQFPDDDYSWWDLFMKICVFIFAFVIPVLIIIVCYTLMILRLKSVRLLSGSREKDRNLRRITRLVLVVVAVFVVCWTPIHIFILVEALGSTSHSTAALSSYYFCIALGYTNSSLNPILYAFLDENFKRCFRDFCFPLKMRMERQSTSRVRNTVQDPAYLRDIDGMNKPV
For data set [5], the target named is D(2) dopamine receptor (Homo sapiens) (UniProt P14416). The conditions noted are these: Compound concentration 10.0 uM.
Sequence of D(2) dopamine receptor (Homo sapiens) (P14416 whole entry): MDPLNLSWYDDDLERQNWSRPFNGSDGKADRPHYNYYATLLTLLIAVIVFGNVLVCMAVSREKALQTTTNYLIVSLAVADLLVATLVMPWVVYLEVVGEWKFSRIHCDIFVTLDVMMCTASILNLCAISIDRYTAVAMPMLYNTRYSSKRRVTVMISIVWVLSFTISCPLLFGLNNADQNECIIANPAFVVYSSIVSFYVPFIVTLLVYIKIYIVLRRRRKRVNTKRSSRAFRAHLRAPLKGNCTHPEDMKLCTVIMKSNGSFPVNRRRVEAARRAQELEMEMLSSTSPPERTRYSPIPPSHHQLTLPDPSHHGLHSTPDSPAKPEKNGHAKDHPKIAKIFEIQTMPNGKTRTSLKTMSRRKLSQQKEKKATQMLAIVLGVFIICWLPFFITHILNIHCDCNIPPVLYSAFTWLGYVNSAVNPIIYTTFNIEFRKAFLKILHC
Data set [6] has as its target 5-hydroxytryptamine receptor 2A (Homo sapiens) (UniProt P28223). To be noted: Compound concentration 10.0 uM.
Data set [7] deals with T1, Alpha-2A adrenergic receptor (Homo sapiens) (UniProt P08913).
T1 sequence (whole entry): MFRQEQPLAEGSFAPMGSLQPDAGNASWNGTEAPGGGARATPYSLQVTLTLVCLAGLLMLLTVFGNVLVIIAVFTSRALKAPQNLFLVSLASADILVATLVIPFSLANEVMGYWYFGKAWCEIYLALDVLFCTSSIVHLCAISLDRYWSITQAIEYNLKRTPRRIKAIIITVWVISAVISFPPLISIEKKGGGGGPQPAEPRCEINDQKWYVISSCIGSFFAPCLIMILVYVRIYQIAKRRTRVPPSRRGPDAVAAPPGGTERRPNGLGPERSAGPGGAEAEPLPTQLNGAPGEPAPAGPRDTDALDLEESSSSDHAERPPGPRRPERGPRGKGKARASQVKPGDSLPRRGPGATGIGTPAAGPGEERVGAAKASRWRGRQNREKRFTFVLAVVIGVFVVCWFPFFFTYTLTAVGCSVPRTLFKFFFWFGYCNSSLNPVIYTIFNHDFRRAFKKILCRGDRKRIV
To be noted: Compound concentration 10.0 uM.

In data set [8] the target is Muscarinic acetylcholine receptor M3 (Homo sapiens) (UniProt P20309). The data set is described as follows: M3(H)ANTAG Eurofins SafetyScreen44 (BI). To be noted: filed as antagonist, Compound concentration 10.0 uM.
Sequence of Muscarinic acetylcholine receptor M3 (Homo sapiens) (P20309 whole entry, looked up): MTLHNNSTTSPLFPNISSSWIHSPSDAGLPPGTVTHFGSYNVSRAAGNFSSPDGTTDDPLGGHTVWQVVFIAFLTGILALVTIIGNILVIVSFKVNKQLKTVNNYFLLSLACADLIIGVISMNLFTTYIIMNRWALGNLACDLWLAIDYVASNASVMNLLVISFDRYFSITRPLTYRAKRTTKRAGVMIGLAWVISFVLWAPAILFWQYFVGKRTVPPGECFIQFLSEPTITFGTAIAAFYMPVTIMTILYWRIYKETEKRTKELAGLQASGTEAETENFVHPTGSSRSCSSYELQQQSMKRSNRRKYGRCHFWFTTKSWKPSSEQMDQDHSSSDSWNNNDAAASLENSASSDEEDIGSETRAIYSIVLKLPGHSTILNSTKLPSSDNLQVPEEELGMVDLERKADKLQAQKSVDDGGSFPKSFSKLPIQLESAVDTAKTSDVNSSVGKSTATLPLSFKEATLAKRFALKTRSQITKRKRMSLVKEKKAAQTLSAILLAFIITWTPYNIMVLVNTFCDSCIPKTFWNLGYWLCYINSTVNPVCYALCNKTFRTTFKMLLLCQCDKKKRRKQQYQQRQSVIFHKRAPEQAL
The species entered for data set [9] is Rattus norvegicus. The conditions noted are these: Compound concentration 10.0 uM.
For data set [10], the target named is MAO-A (amine oxidase [flavin-containing] A) (Rattus norvegicus, UniProt P21396). The data set is described as §1. Details: scale not given: the % may be the effect or the level left; call rule not given here. To be noted: compound concentration 10 uM, read-out: % Ctrl.
Sequence of MAO-A (amine oxidase [flavin-containing] A) (Rattus norvegicus, UniProt P21396) (P21396 whole entry): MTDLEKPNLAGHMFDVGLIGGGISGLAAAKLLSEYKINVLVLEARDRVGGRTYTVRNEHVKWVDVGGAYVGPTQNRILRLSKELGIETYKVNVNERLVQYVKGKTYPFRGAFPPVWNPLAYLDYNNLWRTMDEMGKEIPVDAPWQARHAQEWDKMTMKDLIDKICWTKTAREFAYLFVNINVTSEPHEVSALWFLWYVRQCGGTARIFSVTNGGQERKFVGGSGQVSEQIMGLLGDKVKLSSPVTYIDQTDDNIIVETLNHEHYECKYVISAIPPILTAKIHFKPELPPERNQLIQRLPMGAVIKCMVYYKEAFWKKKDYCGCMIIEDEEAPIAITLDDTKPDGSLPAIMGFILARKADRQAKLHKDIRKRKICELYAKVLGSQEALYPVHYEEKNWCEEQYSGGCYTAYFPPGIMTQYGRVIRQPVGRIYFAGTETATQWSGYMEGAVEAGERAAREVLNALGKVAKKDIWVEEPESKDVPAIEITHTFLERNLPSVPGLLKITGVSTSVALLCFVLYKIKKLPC
For data set [11], the target named is Histamine H3 receptor (Homo sapiens, UniProt Q9Y5N1). In words: GPCRScan assay: inhibition of H3. More on the design: radioligand conc. used [nm] 0.5 – 1.0, parental cells HEK Flp-In.
Sequence of Histamine H3 receptor (Q9Y5N1 whole entry): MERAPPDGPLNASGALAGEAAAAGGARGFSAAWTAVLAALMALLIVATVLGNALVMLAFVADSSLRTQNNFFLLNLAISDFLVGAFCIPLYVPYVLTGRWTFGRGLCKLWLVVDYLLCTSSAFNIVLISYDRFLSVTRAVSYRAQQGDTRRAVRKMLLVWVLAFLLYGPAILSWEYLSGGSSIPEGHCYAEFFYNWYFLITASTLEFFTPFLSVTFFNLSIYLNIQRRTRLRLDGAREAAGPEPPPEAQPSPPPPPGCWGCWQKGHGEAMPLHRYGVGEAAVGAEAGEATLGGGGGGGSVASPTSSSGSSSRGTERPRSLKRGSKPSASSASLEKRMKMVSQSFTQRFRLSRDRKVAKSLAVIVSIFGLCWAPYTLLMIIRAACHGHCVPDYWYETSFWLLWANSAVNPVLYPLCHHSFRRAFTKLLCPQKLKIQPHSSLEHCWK
The target in data set [12] is Beta-3 adrenergic receptor (Homo sapiens) (UniProt P13945). To be noted: Compound concentration 10.0 uM.
Sequence of Beta-3 adrenergic receptor (Homo sapiens) (P13945 whole entry, looked up): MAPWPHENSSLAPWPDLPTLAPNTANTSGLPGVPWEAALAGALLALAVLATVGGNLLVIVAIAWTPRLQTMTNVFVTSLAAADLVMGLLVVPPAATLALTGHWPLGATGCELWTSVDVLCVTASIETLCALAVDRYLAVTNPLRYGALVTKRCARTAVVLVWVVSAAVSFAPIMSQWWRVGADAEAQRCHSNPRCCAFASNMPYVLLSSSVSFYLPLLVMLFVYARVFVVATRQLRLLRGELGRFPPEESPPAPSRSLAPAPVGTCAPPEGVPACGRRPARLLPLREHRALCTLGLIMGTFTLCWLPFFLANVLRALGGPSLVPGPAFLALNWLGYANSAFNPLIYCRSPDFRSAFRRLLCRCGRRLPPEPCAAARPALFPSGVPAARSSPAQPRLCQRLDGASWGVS

Sequence of 5-hydroxytryptamine receptor 2A (Homo sapiens) (P28223 whole entry): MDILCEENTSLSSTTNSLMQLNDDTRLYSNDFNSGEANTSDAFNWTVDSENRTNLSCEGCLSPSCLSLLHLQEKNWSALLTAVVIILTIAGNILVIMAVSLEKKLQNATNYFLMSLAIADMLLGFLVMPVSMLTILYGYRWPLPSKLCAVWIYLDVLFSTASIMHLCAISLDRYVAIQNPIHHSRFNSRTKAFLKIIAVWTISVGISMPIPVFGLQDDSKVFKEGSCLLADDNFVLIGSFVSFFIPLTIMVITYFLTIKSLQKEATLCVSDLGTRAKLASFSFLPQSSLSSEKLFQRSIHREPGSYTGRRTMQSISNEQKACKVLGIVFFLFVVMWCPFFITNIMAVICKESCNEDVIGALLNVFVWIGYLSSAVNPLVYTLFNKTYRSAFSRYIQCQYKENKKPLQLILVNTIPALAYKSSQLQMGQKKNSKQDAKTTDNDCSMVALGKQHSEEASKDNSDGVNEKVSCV
Sequence of Prostaglandin G/H synthase 2 (Homo sapiens) (P35354 whole entry): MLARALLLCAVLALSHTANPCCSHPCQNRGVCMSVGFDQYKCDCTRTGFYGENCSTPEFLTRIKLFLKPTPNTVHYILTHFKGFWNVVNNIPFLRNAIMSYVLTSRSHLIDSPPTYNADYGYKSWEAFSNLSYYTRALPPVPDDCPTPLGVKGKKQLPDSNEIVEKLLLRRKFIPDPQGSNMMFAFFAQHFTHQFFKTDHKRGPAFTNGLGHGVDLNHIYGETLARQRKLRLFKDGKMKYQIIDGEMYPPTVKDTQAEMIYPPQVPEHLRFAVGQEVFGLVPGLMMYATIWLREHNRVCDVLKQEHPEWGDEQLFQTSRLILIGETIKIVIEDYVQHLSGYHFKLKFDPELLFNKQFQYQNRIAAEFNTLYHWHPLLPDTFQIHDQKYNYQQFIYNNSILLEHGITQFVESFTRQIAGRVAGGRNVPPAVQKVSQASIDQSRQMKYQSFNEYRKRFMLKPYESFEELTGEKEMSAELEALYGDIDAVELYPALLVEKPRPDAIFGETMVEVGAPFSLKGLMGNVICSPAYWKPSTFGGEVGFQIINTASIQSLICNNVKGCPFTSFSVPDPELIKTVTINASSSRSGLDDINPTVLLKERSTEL

Regarding `CCn1c(CNC(=O)c2ncc(C)nc2N)[n+](CC)c2ccc(C(=O)N(C)CN(C)C)cc21`, in data set [1], the residual activity was 82%. Besides, the activity at 10 µM in [2] is listed as 95% (not active).

Take `CCn1c(CNC(=O)c2nc(Cl)cnc2N)[n+](CC)c2ccc(C(=O)N(C)CCN(C)C)cc21`: the inhibition – broadly, the relative decrease from the control value, in per cent – is 4.25% in [3]; 25.3% in data set [4]; -8.76% in [5]; -1.15% in data set [6]; 0.56% in data set [7]; -1.51% in data set [9]. Also, in [12], the inhibition was -2.81%. Moreover, the residual activity in data set [8] is 96%. Further, in [10], the activity at 10 µM was 89% (not active). In addition, the Ki was 257 nM in data set [11] (read-out: Ki) and 219 nM in [11] (read-out: pKi (converted)).
